Measured values published in the supplement of paper PMC10307832.

How the values were obtained:
Test in all cases: relative viability (nuclei count vs DMSO), 5 days (fraction); higher = more cells survive
[1] = compound: C1CC1C(=O)NC2=NNC3=C2C=CC(=C3)C4=CC(=CC=C4)C(=O)NC5CC5 [XMD13-2] + O=C(CCCCCCC(=O)Nc1ccccc1)NO [Vorinostat] (partner 1 µM)
Outline: (§1)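 Lung cancer cell lines in 1536-well plates got either a single drug or a fixed anchor-drug dose together with five library-drug doses (not always all listed) in √10 steps, by pin tool, on the day after seeding. Nuclei were counted after 5 days, and relative viability is the treated-to-vehicle ratio of nuclei counts. Values are medians of duplicate plates.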

[2] = compound: Cc1ccc(C(=O)Nc2cccc(C(F)(F)F)c2)cc1Nc1cncc(C(N)=O)c1 [ALW-II-49-7] + Cc1nc(Nc2ncc(C(=O)Nc3c(C)cccc3Cl)s2)cc(N2CCN(CCO)CC2)n1 [Dasatinib] (partner 0.075 µM)
Outline: as §1

[3] = compound: C1CC1C(=O)NC2=NNC3=C2C=CC(=C3)C4=CC(=CC=C4)C(=O)NC5CC5 [XMD13-2] + NC(=O)Nc1cc(-c2cccc(F)c2)sc1C(=O)N[C@H]1CCCNC1 [AZD7762] (partner 0.2 µM)
Outline: as §1

[4] = compound: Cc1nc(Nc2ncc(C(=O)Nc3c(C)cccc3Cl)s2)cc(N2CCN(CCO)CC2)n1 [Dasatinib] + CS(=O)(=O)N1CCN(Cc2cc3nc(-c4cccc5[nH]ncc45)nc(N4CCOCC4)c3s2)CC1 [Pictilisib] (partner 1 µM)
Outline: as §1

NCI-H441
relative viability ([1]; first compound 0.05 µM): 0.854
relative viability ([1]; first compound 0.1581 µM): 1.01
relative viability ([1]; first compound 0.5 µM): 0.97
relative viability ([1]; first compound 1.581 µM): 0.87
relative viability ([1]; first compound 5 µM): 0.839
relative viability ([2]; first compound 0.08 µM): 0.497
relative viability ([2]; first compound 0.253 µM): 0.475
relative viability ([2]; first compound 0.8 µM): 0.684
relative viability ([2]; first compound 2.53 µM): 0.674
relative viability ([2]; first compound 8 µM): 0.459
relative viability ([3]; first compound 0.05 µM): 1.17
relative viability ([3]; first compound 0.1581 µM): 1.29
relative viability ([3]; first compound 0.5 µM): 1.18
relative viability ([3]; first compound 1.581 µM): 1.14
relative viability ([3]; first compound 5 µM): 1.04
relative viability ([4]; first compound 0.005 µM): 0.555
relative viability ([4]; first compound 0.01581 µM): 0.437
relative viability ([4]; first compound 0.05 µM): 0.381
relative viability ([4]; first compound 0.1581 µM): 0.211
relative viability ([4]; first compound 0.5 µM): 0.145

NCI-H23
relative viability ([1]; first compound 0.05 µM): 0.681
relative viability ([1]; first compound 0.1581 µM): 0.46
relative viability ([1]; first compound 0.5 µM): 0.625
relative viability ([1]; first compound 1.581 µM): 0.646
relative viability ([1]; first compound 5 µM): 0.675
relative viability ([2]; first compound 0.08 µM): 0.84
relative viability ([2]; first compound 0.253 µM): 0.871
relative viability ([2]; first compound 0.8 µM): 0.574
relative viability ([2]; first compound 2.53 µM): 0.706
relative viability ([2]; first compound 8 µM): 0.768
relative viability ([3]; first compound 0.05 µM): 0.199
relative viability ([3]; first compound 0.1581 µM): 0.256
relative viability ([3]; first compound 0.5 µM): 0.231
relative viability ([3]; first compound 1.581 µM): 0.209
relative viability ([3]; first compound 5 µM): 0.296
relative viability ([4]; first compound 0.005 µM): 0.335
relative viability ([4]; first compound 0.01581 µM): 0.26
relative viability ([4]; first compound 0.05 µM): 0.376
relative viability ([4]; first compound 0.1581 µM): 0.28
relative viability ([4]; first compound 0.5 µM): 0.181

NCI-H647
relative viability ([1]; first compound 0.05 µM): 0.706
relative viability ([1]; first compound 0.1581 µM): 0.59
relative viability ([1]; first compound 0.5 µM): 0.822
relative viability ([1]; first compound 1.581 µM): 0.746
relative viability ([1]; first compound 5 µM): 0.425
relative viability ([2]; first compound 0.08 µM): 0.153
relative viability ([2]; first compound 0.253 µM): 0.131
relative viability ([2]; first compound 0.8 µM): 0.15
relative viability ([2]; first compound 2.53 µM): 0.161
relative viability ([2]; first compound 8 µM): 0.193
relative viability ([3]; first compound 0.05 µM): 0.558
relative viability ([3]; first compound 0.1581 µM): 0.521
relative viability ([3]; first compound 0.5 µM): 0.532
relative viability ([3]; first compound 1.581 µM): 0.406
relative viability ([3]; first compound 5 µM): 0.248
relative viability ([4]; first compound 0.005 µM): 0.258
relative viability ([4]; first compound 0.01581 µM): 0.308
relative viability ([4]; first compound 0.05 µM): 0.182
relative viability ([4]; first compound 0.1581 µM): 0.11
relative viability ([4]; first compound 0.5 µM): 0.122

201T
relative viability ([1]; first compound 0.05 µM): 0.997
relative viability ([1]; first compound 0.1581 µM): 1.04
relative viability ([1]; first compound 0.5 µM): 1.05
relative viability ([1]; first compound 1.581 µM): 0.981
relative viability ([1]; first compound 5 µM): 1.04
relative viability ([2]; first compound 0.08 µM): 0.616
relative viability ([2]; first compound 0.253 µM): 0.664
relative viability ([2]; first compound 0.8 µM): 0.545
relative viability ([2]; first compound 2.53 µM): 0.594
relative viability ([2]; first compound 8 µM): 0.479
relative viability ([3]; first compound 0.05 µM): 0.634
relative viability ([3]; first compound 0.1581 µM): 0.707
relative viability ([3]; first compound 0.5 µM): 0.584
relative viability ([3]; first compound 1.581 µM): 0.616
relative viability ([3]; first compound 5 µM): 0.61
relative viability ([4]; first compound 0.005 µM): 0.664
relative viability ([4]; first compound 0.01581 µM): 0.517
relative viability ([4]; first compound 0.05 µM): 0.627
relative viability ([4]; first compound 0.1581 µM): 0.521
relative viability ([4]; first compound 0.5 µM): 0.383

NCI-H1734
relative viability ([1]; first compound 0.05 µM): 1.02
relative viability ([1]; first compound 0.1581 µM): 0.777
relative viability ([1]; first compound 0.5 µM): 0.753
relative viability ([1]; first compound 1.581 µM): 0.685
relative viability ([1]; first compound 5 µM): 0.547
relative viability ([2]; first compound 0.08 µM): 0.483
relative viability ([2]; first compound 0.253 µM): 0.414
relative viability ([2]; first compound 0.8 µM): 0.485
relative viability ([2]; first compound 2.53 µM): 0.463
relative viability ([2]; first compound 8 µM): 0.332
relative viability ([3]; first compound 0.05 µM): 0.66
relative viability ([3]; first compound 0.1581 µM): 0.673
relative viability ([3]; first compound 0.5 µM): 0.548
relative viability ([3]; first compound 1.581 µM): 0.501
relative viability ([3]; first compound 5 µM): 0.493
relative viability ([4]; first compound 0.005 µM): 0.367
relative viability ([4]; first compound 0.01581 µM): 0.362
relative viability ([4]; first compound 0.05 µM): 0.355
relative viability ([4]; first compound 0.1581 µM): 0.307
relative viability ([4]; first compound 0.5 µM): 0.229

NCI-H596
relative viability ([1]; first compound 0.05 µM): 0.726
relative viability ([1]; first compound 0.1581 µM): 0.612
relative viability ([1]; first compound 0.5 µM): 0.582
relative viability ([1]; first compound 1.581 µM): 0.61
relative viability ([1]; first compound 5 µM): 1.02
relative viability ([2]; first compound 0.08 µM): 0.575
relative viability ([2]; first compound 0.253 µM): 0.632
relative viability ([2]; first compound 0.8 µM): 0.459
relative viability ([2]; first compound 2.53 µM): 0.582
relative viability ([2]; first compound 8 µM): 0.581
relative viability ([3]; first compound 0.05 µM): 1.14
relative viability ([3]; first compound 0.1581 µM): 0.945
relative viability ([3]; first compound 0.5 µM): 1.09
relative viability ([3]; first compound 1.581 µM): 1.18
relative viability ([3]; first compound 5 µM): 1.2
relative viability ([4]; first compound 0.005 µM): 0.349
relative viability ([4]; first compound 0.01581 µM): 0.348
relative viability ([4]; first compound 0.05 µM): 0.312
relative viability ([4]; first compound 0.1581 µM): 0.475
relative viability ([4]; first compound 0.5 µM): 0.118
